Results reported in the supplement of paper PMC10307832.

How the values were obtained:
Assay in all cases: relative viability (nuclei count vs DMSO), 5 days (fraction); higher = more cells survive
ABC-1 = system: ABC-1
Outline: (§1)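 One day after seeding in 1536-well plates, lung cancer cell lines were dosed by pin tool. Dosing was either single-drug or a fixed anchor-drug dose plus five library-drug doses (not always all listed) in √10 steps. After 5 days, nuclei were stained in one fix-and-stain step and counted on 4× images, and relative viability is the nuclei count of treated wells over that of vehicle wells, given as the median of duplicate plates.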

CAL-12T = system: CAL-12T
Outline: as §1

COR-L23 = system: COR-L23
Outline: as §1

EMC-BAC-2 = system: EMC-BAC-2
Outline: as §1

HARA = system: HARA
Outline: as §1

HCC-366 = system: HCC-366
Outline: as §1

HOP-62 = system: HOP-62
Outline: as §1

LK-2 = system: LK-2
Outline: as §1

NCI-H1437 = system: NCI-H1437
Outline: as §1

NCI-H1563 = system: NCI-H1563
Outline: as §1

NCI-H1650 = system: NCI-H1650
Outline: as §1

NCI-H1651 = system: NCI-H1651
Outline: as §1

NCI-H1734 = system: NCI-H1734
Outline: as §1

NCI-H1755 = system: NCI-H1755
Outline: as §1

NCI-H2347 = system: NCI-H2347
Outline: as §1

NCI-H3122 = system: NCI-H3122
Outline: as §1

NCI-H441 = system: NCI-H441
Outline: as §1

NCI-H596 = system: NCI-H596
Outline: as §1

NCI-H727 = system: NCI-H727
Outline: as §1

PC-3 [JPC-3] = system: PC-3 [JPC-3]
Outline: as §1

RERF-LC-KJ = system: RERF-LC-KJ
Outline: as §1

SK-LU-1 = system: SK-LU-1
Outline: as §1

UMC-11 = system: UMC-11
Outline: as §1

CN1CCN(CCOc2cc(OC3CCOCC3)c3c(Nc4c(Cl)ccc5c4OCO5)ncnc3c2)CC1 [Saracatinib] + N=C(N)NC(=N)NCCc1ccccc1 [Phenformin] (partner 250 µM)
relative viability (ABC-1; first compound 0.02 µM): 0.251
relative viability (ABC-1; first compound 0.2 µM): 0.238
relative viability (ABC-1; first compound 0.6325 µM): 0.231
relative viability (ABC-1; first compound 2 µM): 0.215
relative viability (CAL-12T; first compound 0.02 µM): 0.608
relative viability (CAL-12T; first compound 0.2 µM): 0.639
relative viability (CAL-12T; first compound 0.6325 µM): 0.595
relative viability (CAL-12T; first compound 2 µM): 0.506
relative viability (COR-L23; first compound 0.02 µM): 0.466
relative viability (COR-L23; first compound 0.2 µM): 0.393
relative viability (COR-L23; first compound 0.6325 µM): 0.481
relative viability (COR-L23; first compound 2 µM): 0.449
relative viability (EMC-BAC-2; first compound 0.02 µM): 0.521
relative viability (EMC-BAC-2; first compound 0.2 µM): 0.432
relative viability (EMC-BAC-2; first compound 0.6325 µM): 0.418
relative viability (EMC-BAC-2; first compound 2 µM): 0.35
relative viability (HARA; first compound 0.02 µM): 0.54
relative viability (HARA; first compound 0.2 µM): 0.279
relative viability (HARA; first compound 0.6325 µM): 0.496
relative viability (HARA; first compound 2 µM): 0.24
relative viability (HCC-366; first compound 0.02 µM): 0.694
relative viability (HCC-366; first compound 0.6325 µM): 0.599
relative viability (HCC-366; first compound 2 µM): 0.346
relative viability (HOP-62; first compound 0.02 µM): 0.661
relative viability (HOP-62; first compound 0.2 µM): 0.629
relative viability (HOP-62; first compound 0.6325 µM): 0.593
relative viability (HOP-62; first compound 2 µM): 0.623
relative viability (LK-2; first compound 0.02 µM): 0.545
relative viability (LK-2; first compound 0.2 µM): 0.368
relative viability (LK-2; first compound 0.6325 µM): 0.313
relative viability (LK-2; first compound 2 µM): 0.314
relative viability (NCI-H1437; first compound 0.02 µM): 0.375
relative viability (NCI-H1437; first compound 0.2 µM): 0.345
relative viability (NCI-H1437; first compound 0.6325 µM): 0.329
relative viability (NCI-H1437; first compound 2 µM): 0.27
relative viability (NCI-H1563; first compound 0.02 µM): 0.615
relative viability (NCI-H1563; first compound 0.2 µM): 0.63
relative viability (NCI-H1563; first compound 0.6325 µM): 0.603
relative viability (NCI-H1563; first compound 2 µM): 0.572
relative viability (NCI-H1650; first compound 0.02 µM): 0.412
relative viability (NCI-H1650; first compound 0.2 µM): 0.253
relative viability (NCI-H1650; first compound 0.6325 µM): 0.317
relative viability (NCI-H1650; first compound 2 µM): 0.295
relative viability (NCI-H1651; first compound 0.02 µM): 0.414
relative viability (NCI-H1651; first compound 0.2 µM): 0.258
relative viability (NCI-H1651; first compound 0.6325 µM): 0.388
relative viability (NCI-H1651; first compound 2 µM): 0.3
relative viability (NCI-H1734; first compound 0.02 µM): 0.375
relative viability (NCI-H1734; first compound 0.6325 µM): 0.375
relative viability (NCI-H1734; first compound 2 µM): 0.308
relative viability (NCI-H1755; first compound 0.02 µM): 0.665
relative viability (NCI-H1755; first compound 0.2 µM): 0.484
relative viability (NCI-H1755; first compound 0.6325 µM): 0.597
relative viability (NCI-H1755; first compound 2 µM): 0.478
relative viability (NCI-H2347; first compound 0.02 µM): 0.38
relative viability (NCI-H2347; first compound 0.2 µM): 0.26
relative viability (NCI-H2347; first compound 0.6325 µM): 0.377
relative viability (NCI-H2347; first compound 2 µM): 0.342
relative viability (NCI-H3122; first compound 0.02 µM): 0.385
relative viability (NCI-H3122; first compound 0.2 µM): 0.248
relative viability (NCI-H3122; first compound 0.6325 µM): 0.301
relative viability (NCI-H3122; first compound 2 µM): 0.285
relative viability (NCI-H441; first compound 0.02 µM): 0.768
relative viability (NCI-H441; first compound 0.2 µM): 0.733
relative viability (NCI-H441; first compound 0.6325 µM): 1.17
relative viability (NCI-H441; first compound 2 µM): 0.819
relative viability (NCI-H596; first compound 0.02 µM): 0.845
relative viability (NCI-H596; first compound 0.2 µM): 0.625
relative viability (NCI-H596; first compound 0.6325 µM): 0.689
relative viability (NCI-H596; first compound 2 µM): 0.67
relative viability (NCI-H727; first compound 0.02 µM): 0.535
relative viability (NCI-H727; first compound 0.2 µM): 0.238
relative viability (NCI-H727; first compound 0.6325 µM): 0.465
relative viability (NCI-H727; first compound 2 µM): 0.316
relative viability (PC-3 [JPC-3]; first compound 0.02 µM): 0.49
relative viability (PC-3 [JPC-3]; first compound 0.2 µM): 0.421
relative viability (PC-3 [JPC-3]; first compound 0.6325 µM): 0.421
relative viability (PC-3 [JPC-3]; first compound 2 µM): 0.339
relative viability (RERF-LC-KJ; first compound 0.02 µM): 0.445
relative viability (RERF-LC-KJ; first compound 0.2 µM): 0.401
relative viability (RERF-LC-KJ; first compound 0.6325 µM): 0.313
relative viability (RERF-LC-KJ; first compound 2 µM): 0.361
relative viability (SK-LU-1; first compound 0.02 µM): 0.474
relative viability (SK-LU-1; first compound 0.2 µM): 0.351
relative viability (SK-LU-1; first compound 0.6325 µM): 0.25
relative viability (SK-LU-1; first compound 2 µM): 0.209
relative viability (UMC-11; first compound 0.02 µM): 0.341
relative viability (UMC-11; first compound 0.6325 µM): 0.32
relative viability (UMC-11; first compound 2 µM): 0.232
